One test relates to MCF-7 cells. As to the kind of experiment: CyQUANT cell proliferation assay, MCF-7. It counts as cell-based. The settings on record: 1 μM, positive control, 72 h. As to the method:
Sulforhodamine B cytotoxicity assay […]
incubated in hypoxia for 24h.
O.D. value of the experimental set.
CyQUANT cell proliferation assay
The cells were incubated for 5 hours and then treated with Tamoxifen or P1. After 24, 48 or 72 hours, the media was […]
C35006) following the manufacturers instructions. Fluorescence measurements were […]
Workman, P.; Ashcroft, M. Cancer Res 2005, 65, 4918.

Test [1] relates to HIF-1 (HIF-dependent luciferase reporter, U2OS-HRE-luc cells). The test is described as follows: HIF-1-dependent luciferase reporter assay, U2OS-HRE-luc. In kind it is cell-based, human. As to the method:
(§1) The ability of P1–P3 to disrupt HIF-1 function in cells was assessed using a HIF-1-dependent luciferase reporter assay.[15],[21] The assay uses human osteosarcoma U2OS cells, stably transfected with a HIF-dependent luciferase reporter construct (U2OS-HRE-luc), where activation of HIF results in an increase in luciferase expression.[15]
(§2) Endogenous HIF-1 luciferase reporter assays were conducted as previously reported in U2OS-HRE-luc[15] and MCF-7 cells.[46] For plasmid-expressed HIF-α luciferase reporter assays, MCF-7 and U2OS cells were transiently transfected with plasmids expressing HIF-1α, HIF-2α, or a blank control (pcDNA3.1-HIF-1α, pcDNA3.1-HIF-2α, or pcDNA3.1), a renilla-encoding control (phRL-TK), and a HIF-dependent firefly luciferase reporter construct (pGL2-TK-HRE), using Transfast (Promega) according to the manufacturer’s instructions. After 24 h, cells were recovered and plated (4000 cells/well) in 96-well plates (Perkin-Elmer) and incubated for 5 h before either hypoxic or aerobic incubation in presence or absence of cyclic peptide inhibitors. Firefly and renilla activities were determined using Dual-Glo Reagent (Promega) according to the manufacturer’s instructions. The luciferase signal was normalized using the corresponding renilla values.
Cells were treated with the stated concentrations of inhibitor (P1, P2, or P3) and incubated in normoxia for 4 h, followed by incubation in a hypoxic environment. All manipulation of cell pellets (e.g., lysis, mRNA, and protein extraction) was conducted in a hypoxic environment.

The subject of test [2] is HIF-1 (HIF-dependent luciferase reporter, MCF-7 breast cancer cells). The test is described as follows: HIF-1-dependent luciferase reporter assay, MCF-7. It counts as cell-based. The settings on record: MCF-7, 100 μM. As to the method:
as §1
as §2, with “values. […]” for “values.”

A further test relates to PAS-A domain of HIF-1α. The test is described as follows: Fluorescent binding assay, PAS-A. The settings on record: fluorescence at 680 nm, Ni2+-coated plate.
In a further test the test system is His-HIF-1α1–350. The test is described as follows: Fluorescent binding assay, HIF-1α. The settings on record: fluorescence at 680 nm, Ni2+-coated plate, 5 µL of 100 µM solution in 95 µL buffer, 1 hour, room temperature.
The test system of a further test is His-HIF-2α1–351. The test is described as follows: Fluorescent binding assay, HIF-2α. The settings on record: fluorescence at 680 nm, Ni2+-coated plate, 5 µL of 100 µM solution in 95 µL buffer, 1 hour, room temperature.
Another test addresses T1, PAS-B domain of HIF-1α (Homo sapiens, UniProt Q16665).
T1 construct: Per-ARNT-Sim-B (PAS-B, amino acids 235–350) domains; His (N); made in house; host or cells: E. coli BL21(DE3)
The test is described as follows: Fluorescent binding assay, PAS-B. The settings on record: fluorescence at 680 nm, Ni2+-coated plate.

The next test has as its system bHLH domain of HIF-1α. The test is described as follows: Fluorescent binding assay, bHLH. The settings on record: fluorescence at 680 nm, Ni2+-coated plate.
Test [3] concerns HIF-2 (HIF-dependent luciferase reporter, MCF-7 cells). As to the kind of experiment: HIF-2 luciferase reporter assay, MCF-7. It counts as cell-based. The settings on record: MCF-7, transfected HIF-2α.
Excerpt: (§3) In addition, P1 had no effect on VEGF protein levels in hypoxic 786-O cells (Figure 6B). To further probe the effect of P1 on HIF-2, a luciferase reporter assay was developed and used. The assay was derived from the HIF-1 luciferase reporter assay detailed above (Figure 2C and D) and adapted for HIF-2 by replacing the plasmid encoding HIF-1α with the equivalent plasmid encoding HIF-2α. […] P2 and P3 also had no effect on HIF-2 in this assay (Figure S9).
as §2

In test [4] the test system is U2OS-luc control cell line stably expressing luciferase. The test is described as follows: Control constitutive luciferase reporter, U2OS-luc. It counts as cell-based, human. From the text:
Figure S3: Identification of cyclic peptide HIF-1 inhibitors. (A) SICLOPPS expression is induced by arabinose, which processes to give a member of the cyclic peptide library. A dimerization inhibitor would be expected to rescue growth of the HIF-1 RTHS on selective media plates containing IPTG, kanamycin and 3-amino-triazole, and arabinose. (B) The ability of the selected cyclic peptides to […]
HIF-1 RTHS containing the corresponding SICLOPPS plasmid onto selective media. In the absence of arabinose the SICLOPPS split-intein is not produced; the HIF-1 RTHS containing plasmids encoding […]
colonies show survival on selective media plates containing IPTG and arabinose (panel 2). Expressing the 3 selected cyclic peptides from mutant SICLOPPS inteins (H24A, F26A mutations in the C- […]
cyclic form of the peptides and their activity. […]
expressing a constitutive luciferase reporter construct. […]

Test [5] has as its system HIF-2 (HIF-dependent luciferase reporter, U2OS cells). The test is described as follows: HIF-2 luciferase reporter assay, U2OS. In kind it is cell-based, human. The settings on record: transfected HIF-2α.
Excerpt: as §3, §2

In test [6] the test system is HIF-1α/HIF-1β protein–protein interaction. As to the kind of experiment: HIF-1 bacterial reverse two-hybrid system (RTHS), SICLOPPS-expressed cyclic peptides, drop-spotting. The settings on record: E. coli HIF-1 RTHS, cyclic peptide expressed from SICLOPPS plasmid, 10-fold serial dilutions, compared with the other potential inhibitors. In kind it is cell-based. From the text: We used our genetically encoded high-throughput screening platform[23]−[25] to identify inhibitors of the HIF-1α/HIF-1β protein–protein interaction. We built and verified the function of a HIF-1 bacterial reverse two-hybrid system (RTHS, for a detailed description see the Supporting Information and Figures S1–S3). The HIF-1 RTHS was used to screen a plasmid-encoded SICLOPPS (split intein circular ligation of peptides and proteins)[26],[27] library of 3.2 million cyclic hexapeptides for HIF-1 dimerization inhibitors.
After the first round of screening, 120 surviving colonies were observed and subjected to several rounds of secondary screening to eliminate false positives and nonselective inhibitors, leaving 12 potential HIF-1 dimerization inhibitors that were ranked by drop-spotting.
The HIF-1 RTHS, associated control RTHS, and SICLOPPS library were constructed as detailed in the Supporting Information. Electrocompetent cells of the HIF-1 RTHS were prepared and transformed with the C+5 SICLOPPS plasmid library. Transformation efficiency, assessed by plating 10-fold serial dilutions of the recovery solution on LB agar supplemented with chloramphenicol (35 μg/mL), was consistently found to be ∼5 × 10^7, thus ensuring adequate coverage of the 3.2 × 10^6 member cyclic peptide library. Transformants were washed with minimal media and plated onto minimal media agar plates supplemented with ampicillin (50 μg/mL), spectinomycin (25 μg/mL), kanamycin (50 μg/mL), 3-AT (7.5 μM), IPTG (100 μM), L-arabinose (6.5 μM), and chloramphenicol (35 μg/mL). The plates were incubated for 2–3 days at 37 °C until individual colonies were visible. Colonies were picked and restreaked onto LB agar plates containing ampicillin (50 μg/mL), spectinomycin (25 μg/mL), and chloramphenicol (35 μg/mL) and incubated overnight at 37 °C.
Surviving colonies from these plates were grown overnight and assessed by drop-spotting 10-fold serial dilutions onto minimal media plates, supplemented with antibiotics, IPTG and 3-AT as above, with and without 6.5 μM L-arabinose. […]

Entries after “also recorded” stand apart in the source; their conditions may differ.

T1 sequence (Q16665 235-350): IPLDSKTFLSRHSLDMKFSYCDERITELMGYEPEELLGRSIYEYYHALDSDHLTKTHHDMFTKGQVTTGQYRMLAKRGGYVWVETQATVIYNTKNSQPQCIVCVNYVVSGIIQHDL

With `CC/C(=C(\c1ccc(O)cc1)c1ccc(OCCN(C)C)cc1)c1ccccc1` [4-hydroxytamoxifen, reference compound], in the test with MCF-7 cells, the “proliferation of MCF-7 cells” value was “inhibited proliferation; also recorded: arrests cell division”.
As for “CGRKKRRQRRRPPQ [Tat-tag, Tat-tag alone, control, reference compound]”, the “effect on luciferase signal, Tat-tag alone” value in test [1] (U2OS, 100 μM) is recorded as “did not affect the luciferase signal”; in [2], “did not affect the luciferase signal”.
For “Megastokes dye 673-triazole-(cyclo-ALLFVY) (head to tail) [fluorescent derivative of cyclo-CLLFVY, propargylalanine derivative of cyclo-CLLFVY click-linked to azide-Megastoke dye 673]”, the “binding to PAS-A domain of HIF-1α” value in the test on PAS-A domain of HIF-1α is “close to background level”. Moreover, the “binding to His-HIF-1α1–350” value with His-HIF-1α1–350 is “observed binding”. The “binding to His-HIF-2α1–351” value with His-HIF-2α1–351 was “close to background levels”. In addition, the “binding to PAS-B domain of HIF-1α” value on PAS-B domain of HIF-1α is reported as “binds the PAS-B domain of HIF-1α”. Besides, in the test with bHLH domain of HIF-1α, the “binding to bHLH domain of HIF-1α” value is given as “close to background level”.
Regarding “Tat-cyclo-CLLRMY (head to tail) [P3, cyclo-CLLRMY tagged with Tat peptide via a disulfide bond]”, the “effect on luciferase reporter in hypoxia” value in [1] (U2OS-HRE-luc, hypoxia (1% O2)) is “did not show an effect”. Moreover, the “effect on luciferase reporter in normoxia (basal)” value in test [1] (U2OS-HRE-luc, normoxia) is “did not show an effect”. Further, the “effect on HIF-2 luciferase reporter signal” value in test [3] and in test [5] was “do not affect” in each case. For the same molecule, the “effect on constitutive luciferase signal” value in [4] is on record as “do not affect”.
Consider cyclo-CLLFVY (head to tail), for which the “activity ranking by drop-spotting in HIF-1 RTHS” value (from here on “activity ranking”) in test [6] was “significantly more active than the others”.
Take cyclo-CLLRMY (head to tail): the “activity ranking” value in test [6] was “significantly more active than the others”.
As for cyclo-CRLMVL (head to tail), the “activity ranking” value in test [6] is “significantly more active than the others”.
